According to patent US12364696B2, “Treatment of autoimmune disease” (priority 2019, dated 2025):
Values joined by “and” are separate entries in the source; they are usually repeats but may differ in a detail not shown here. Equal values may be shown once. “Also recorded” adds a separate entry of the source.

Test system: patients with chronic, refractory, moderate to severe alopecia areata
Test: Retrospective clinical study of orally administered and sublingual tofacitinib, 7-point assessment scale of hair regrowth
Assay type: in vivo, human
Settings: for Increase in hair growth of >+1, % of patients / Increase in hair growth of >+1, number of patients / Mean score on 7-point assessment scale / Patients who achieved +3 (complete response, CR) / Median score on 7-point assessment scale: all patients; for Score +1, number of patients / Score +2, number of patients / Score +3, % of patients / Score +3, number of patients / Total non-responders, % of patients / Total non-responders, number of patients / Total responders, % of patients / Total responders, number of patients: orally administered
[1] = dose range 1-20 mg, oral or sublingual
[2] = of 71 patients on immunosuppressive co-therapy at start
[3] = oral or sublingual, n = 127, listed as Tofacitinib
[4] = 3 months, n = 39, mean dose 4.19 mg
[5] = 6 months, n = 36, mean dose 4.96 mg
[6] = 9 months, n = 25, mean dose 5.58 mg
[7] = 12 months, n = 21, mean dose 5.63 mg
[8] = 15 months, n = 16, mean dose 6.90 mg

## C[C@@H]1CCN(C(=O)CC#N)C[C@@H]1N(C)c1ncnc2[nH]ccc12 [tofacitinib]
31 late responders, 6 months
  Late responders with CR: 2
  Late responders with a score of 0: 8
  Late responders with a score of >+1: 17
31 late responders, 9 months
  Late responders in CR: 4
  Late responders with a score of >+1: 20
31 late responders, by 15 months
  Late responders who had achieved CR: 10
[1]
  Overall effect on hair loss and regrowth: arrested hair loss and stimulated regrowth in the overwhelming majority of patients; also recorded: highly effective
  Tolerability: well tolerated
Later diagnosed with nonalcoholic steatohepatitis
  Patients who developed asymptomatic hepatic transaminitis leading to treatment discontinuation: One
[2]
  Patients who discontinued all other immunosuppressive treatment after starting tofacitinib, %: 46%
  Patients who discontinued all other immunosuppressive treatment after starting tofacitinib, number: Thirty-three
Of the 67 early responders
  Early responders who achieved a +2: 40%
  Early responders who achieved a +3: 22%
Oral or sublingual
  Patients who have remained in CR for >12 months: nine
  Patients who remain in CR after six months of continued treatment: Twenty-four
  Side effects: infrequent and mild
Oral or sublingual, 3 months
  Increase in hair growth of >+1, % of patients: 56%
  Increase in hair growth of >+1, number of patients: 71
  Mean score on 7-point assessment scale: 0.84 and 0.8
  Patients who achieved +3 (complete response, CR): 12%
Oral or sublingual, 3 months (IQR 0 to +2)
  Median score on 7-point assessment scale: +1 (25-49% hair loss)
Oral or sublingual, 6 months
  Mean score on 7-point assessment scale: 1.1
Oral or sublingual, 9 months
  Mean score on 7-point assessment scale: 1.1
Oral or sublingual, 12 months
  Increase in hair growth of >+1, % of patients: 78%
  Increase in hair growth of >+1, number of patients: 43
  Mean score on 7-point assessment scale: 1.66 and 1.6
  Patients who achieved +3 (complete response, CR): 40%
Oral or sublingual, 12 months (IQR +1 to +3)
  Median score on 7-point assessment scale: +2 (1-24% hair loss)
Oral or sublingual, 15 months
  Mean score on 7-point assessment scale: 1.9
Oral or sublingual, 18 months
  Increase in hair growth of >+1, % of patients: 90%
  Increase in hair growth of >+1, number of patients: 9
  Mean score on 7-point assessment scale: 2.33 and 2.4
  Patients who achieved +3 (complete response, CR): 80%
Oral or sublingual, 18 months (IQR +3 to +3)
  Median score on 7-point assessment scale: +3 (No hair loss (SALT 0))
Oral or sublingual, n = 127
  Early responders (>+1 score by 3 months of treatment), % of patients: 53%
  Early responders (>+1 score by 3 months of treatment), number of patients: Sixty-seven
  Late responders (>+1 score after 6 months of treatment), % of patients: 24%
  Late responders (>+1 score after 6 months of treatment), number of patients: Thirty-one
  Primary treatment failure (failed to respond), number of patients: Twenty-four
  Primary treatment failure, % of patients: 19%
  Relapse (at least one grade deterioration in score), number of patients: Twenty-eight
  Relapse, % of patients: 22%
[3]
  Primary treatment failure (failed to respond), number of patients: 24
  Relapse (at least one grade deterioration in score), number of patients: 28
[4]
  Score +1, number of patients: 7
  Score +2, number of patients: 8
  Score +3, % of patients: 18%
  Score +3, number of patients: 7
  Total non-responders, % of patients: 44%
  Total non-responders, number of patients: 17
  Total responders, % of patients: 56%
  Total responders, number of patients: 22
[5]
  Score +1, number of patients: 4
  Score +2, number of patients: 7
  Score +3, % of patients: 27%
  Score +3, number of patients: 10
  Total non-responders, % of patients: 42%
  Total non-responders, number of patients: 15
  Total responders, % of patients: 58%
  Total responders, number of patients: 21
[6]
  Score +1, number of patients: 3
  Score +2, number of patients: 4
  Score +3, % of patients: 48%
  Score +3, number of patients: 12
  Total non-responders, % of patients: 24%
  Total non-responders, number of patients: 6
  Total responders, % of patients: 76%
  Total responders, number of patients: 19
[7]
  Score +1, number of patients: 1
  Score +2, number of patients: 5
  Score +3, % of patients: 52%
  Score +3, number of patients: 11
  Total non-responders, % of patients: 19%
  Total non-responders, number of patients: 4
  Total responders, % of patients: 81%
  Total responders, number of patients: 17
[8]
  Score +1, number of patients: 1
  Score +2, number of patients: 2
  Score +3, % of patients: 56%
  Score +3, number of patients: 9
  Total non-responders, % of patients: 25%
  Total non-responders, number of patients: 4
  Total responders, % of patients: 75%
